This is an account of results in publication PMC10180490, “New Indazol-Pyrimidine-Based Derivatives as Selective Anticancer Agents: Design, Synthesis, and In Silico Studies” (Molecules, 2023).

As a reminder, the IC50 is the concentration that gives 50% inhibition. Broadly, the melting point is the temperature of the solid-liquid transition.

The subject of one series is lung cancer cells (A549). The experiment in a line: MTT cytotoxicity assay, A549. In kind it is cell-based, human. Here is the method: (§1) All of the synthesized compounds were screened for their cytotoxic effect against three different human cancer cells, namely breast cancer cells (MCF-7), lung cancer cells (A549), and colorectal adenocarcinoma cells (Caco2), using the MTT cytotoxic assay. […] Then, 3-[4,5-dimethylthiazol-2-yl]-2,5-diphenyl tetrazolium bromide (MTT) was added.

For series [1], the system named is breast cancer cells (MCF-7). The experiment in a line: MTT cytotoxicity assay, MCF-7. In kind it is cell-based. The following applies: Homo sapiens, MCF7, MCF-7 cells, 48 h. Here is the method:
as §1
A general note: Formazan colour is commonly taken as a measure of viable cells.

In series [2] the test system is colorectal adenocarcinoma cells (Caco2). The series is described as follows: MTT cytotoxicity assay, Caco2. The series is classed as cell-based. Particulars: Homo sapiens, Caco-2, 48 h. On the procedure: as §1
Series [3] concerns MCF-7 cells. The series is described as follows: Annexin-V/PI apoptosis assay. Particulars: MCF-7, 24 h; for Annexin V/PI quadrant, remaining (necrosis): Figure 3, quadrant not given, assigned by elimination; for average increment at the early phase of apoptosis / average increment in late-stage apoptosis: average for the treated groups; for percentage of Annexin V/PI-stained cells: both early and late phases of apoptosis, untreated 1.76%. The series is classed as cell-based, human. Here is the method: To assess the apoptotic potential, MCF-7 cells were treated with compound 4i or 4f for 24 h and then assayed for Annexin-V/PI (propidium iodide) binding according to the reported protocol. […] At the early phase of apoptosis, the average increment for the treated groups was around 27%, while it was around 14% in late-stage apoptosis.
Apoptosis was measured using an Annexin V-FITC Apoptosis Detection Kit and analyzed using FACSCalibur flow cytometer.

The subject of series [4] is MCF-7 cells. The series is described as follows: Cell cycle analysis by DNA flow cytometry. The series is classed as cell-based, human. The following applies: MCF-7, 24 h; for increase in the percentage of cells in the G0-G1 phase: compared with the control (53.89%). On the procedure:
An encouraging strategy for cancer therapy is targeting the cell cycle, according to the reported method. In this study, compounds 4i and 4f were tested—using a DNA flow cytometry assay—for their effects on the cell cycle of MCF-7 cells (Figure 2). […] Simultaneously, there was a significant reduction in the percentage of the cell population in the G2/M phase—32% and 46% for cells treated with compound 4f or 4i, respectively, compared with controls. The decline in the proportion of cells in the G2/M phase as well as the increase in the cell population in the G0-G1 and S phases indicate a reduction in cell cycle progression in MCF-7 cells.

Series [5] deals with caspase-3/7 in MCF-7 cells. The experiment in a line: Caspase-3/7 Green flow cytometry assay. The series is classed as cell-based, human. The following applies: untreated controls 0.43%. On the procedure:
Caspases are essential factors in apoptotic cell death since they play a key role in maintaining homeostasis, and their activation induces apoptosis.
Caspase-3/7 activity was calculated using Caspase-3/7 Green Flow Cytometry Assay Kit Catalog # C10427.
Background: A flow cytometer gives signals particle by particle.

In series [6] the test system is mammary gland epithelial cell line MCF-10a. The experiment in a line: Cytotoxicity toward normal cells MCF-10a. In kind it is cell-based, human. Particulars: for SI (selectivity index): MCF-10a IC50 relative to MCF-7 IC50.
Series [7] is described as follows: Cytotoxicity toward normal cells MCF-10a. The series is classed as cell-based, human. Particulars: human, MCF-10a mammary gland epithelial cells (normal), MCF-10a normal cell line.

In turn, `O=S(=O)(Nc1ncccn1)c1ccc(Nc2ncc(F)c(Nc3ccc4[nH]ncc4c3)n2)cc1` [Compound 4a, 4-((4-((1H-indazol-5-yl)amino)-5-fluoropyrimidin-2-yl)amino)-N-(pyrimidin-2-yl)benzenesulfonamide] showed a melting point of 343 to 345 °C. The same molecule displayed an IC50 in the series on lung cancer cells (A549) (48 h) of 3.2 ± 0.18 µM. This molecule displayed a 50% inhibitory concentration (IC50) with lung cancer cells (A549) (Homo sapiens, A549, 48 h) of 3.3 µM. The molecule further had an IC50 in [1] of 2.96 ± 0.14 µM. The molecule further registered a concentration for half-maximal inhibition (IC50) in series [2] of 10.3 ± 0.51 µM.

Molecule `O=S(=O)(Nc1nccs1)c1ccc(Nc2ncc(F)c(Nc3ccc4[nH]ncc4c3)n2)cc1` [Compound 4b, 4-((4-((1H-indazol-5-yl)amino)-5-fluoropyrimidin-2-yl)amino)-N-(thiazol-2-yl)benzenesulfonamide] registered a melting point of 285 to 287 °C. In the series on lung cancer cells (A549) (Homo sapiens, A549, 48 h), the half-inhibitory concentration (IC50) was 52.9 ± 2.92 µM. For the same molecule, in series [1], the half-inhibitory concentration (IC50) is 14.3 ± 0.68 µM. For the same molecule, in series [2], the IC50 stood at 31.2 ± 1.55 µM.

The molecule `COc1cc(Nc2ncc(F)c(Nc3ccc4[nH]ncc4c3)n2)cc(OC)c1OC` [Compound 4c, 5-fluoro-N4-(1H-indazol-5-yl)-N2-(3,4,5-trimethoxyphenyl)pyrimidine-2,4-diamine] returned a melting point of 352 to 354 °C. It took 58.8 ± 3.25 µM to reach half-maximal inhibition in the series with lung cancer cells (A549) (Homo sapiens, A549, 48 h) (IC50). The same molecule registered a half-maximal inhibitory concentration (IC50) in series [1] of 29.1 ± 1.4 µM. The molecule also had a half-inhibitory concentration (IC50) in series [2] of 67.8 ± 3.36 µM.

For the molecule `NS(=O)(=O)c1cccc(Nc2ncc(F)c(Nc3ccc4[nH]ncc4c3)n2)c1` [Compound 4d, 3-((4-((1H-indazol-5-yl)amino)-5-fluoropyrimidin-2-yl)amino)benzenesulfonamide], the melting point was 286 to 288 °C. The IC50 with lung cancer cells (A549) (Homo sapiens, A549, 48 h) is 13.5 ± 0.74 µM. In addition, the IC50 in [1] turned out to be 4.8 ± 0.23 µM. The molecule further displayed a concentration for half-maximal inhibition (IC50) in series [2] of 9.63 ± 0.48 µM.

`NS(=O)(=O)c1ccc(Nc2ncc(F)c(Nc3ccc4[nH]ncc4c3)n2)cc1` [Compound 4e, 4-((4-((1H-indazol-5-yl)amino)-5-fluoropyrimidin-2-yl)amino)benzenesulfonamide] registered a melting point of 303 to 305 °C. The molecule also displayed an IC50 in the series on lung cancer cells (A549) (Homo sapiens, A549, 48 h) of 46.6 ± 2.57 µM. This molecule also showed an IC50 in series [1] of 25.1 ± 1.2 µM. For the same molecule, 7.17 ± 0.36 µM corresponded to half-maximal inhibition in series [2] (IC50).

For `Fc1cnc(Nc2ccc(N3CCOCC3)cc2)nc1Nc1ccc2[nH]ncc2c1` [Compound 4f, 5-fluoro-N4-(1H-indazol-5-yl)-N2-(4-morpholinophenyl) pyrimidine-2,4-diamine], the IC50 with lung cancer cells (A549) (Homo sapiens, A549, 48 h) turned out to be 12.8 ± 0.71 µM; in series [1] it was 1.63 ± 0.08 µM; in series [2], 22.3 ± 1.11 µM; in series [7], 23.7 ± 1.17 µM. Also, the “Annexin V/PI quadrant, remaining (necrosis)” value in the series on MCF-7 cells [3] is reported as 3.23%. For the same molecule, the “average increment at the early phase of apoptosis” value in the series on MCF-7 cells [3] is on record as “around 27%”. Also, the “average increment in late-stage apoptosis” value in the series with MCF-7 cells [3] is “around 14%”. Also, in the series with MCF-7 cells [3], the “percentage of Annexin V/PI-stained cells” value is recorded as “about 47%”. In the series with MCF-7 cells [4] (compared with controls), the “reduction in the percentage of the cell population in the G2/M phase” value came out at 32%. In addition, in the series with MCF-7 cells [4], the “increase in the percentage of cells in the G0-G1 phase” value is listed as “around 7%”. Moreover, the “levels of active caspase-3/7 expression” value in series [5] is 19%. In [6], the “SI (selectivity index)” value turned out to be 14.5.

With `NS(=O)(=O)c1ccc(Nc2nccc(Nc3ccc4[nH]ncc4c3)n2)cc1` [Compound 4g, 4-((4-((1H-indazol-5-yl)amino)pyrimidin-2-yl)amino) benzenesulfonamide], the half-inhibitory concentration (IC50) in the series on lung cancer cells (A549) (Homo sapiens, A549, 48 h) was 11.2 ± 0.62 µM; in [1], 4.68 ± 0.22 µM; in series [2], 6.91 ± 0.34 µM.

In turn, `O=S(=O)(Nc1nccs1)c1ccc(Nc2nccc(Nc3ccc4[nH]ncc4c3)n2)cc1` [Compound 4h, 4-((4-((1H-indazol-5-yl)amino)pyrimidin-2-yl)amino)-N-(thiazol-2-yl)benzenesulfonamide] came in with a melting point of 211 to 213 °C. This molecule yielded an IC50 in the series with lung cancer cells (A549) (Homo sapiens, A549, 48 h) of 23.5 ± 1.3 µM. Further, the IC50 in series [1] stood at 21.1 ± 1.01 µM. In series [2], this molecule yielded a concentration for half-maximal inhibition (IC50) of 17.3 ± 0.86 µM.

Turning to `COc1cc(Nc2nccc(Nc3ccc4[nH]ncc4c3)n2)cc(OC)c1OC` [Compound 4i, N4-(1H-indazol-5-yl)-N2-(3,4,5-trimethoxyphenyl) pyrimidine-2,4-diamine], the 50% inhibitory concentration (IC50) amounted to 2.31 ± 0.13 µM in the series with lung cancer cells (A549) (Homo sapiens, A549, 48 h); 1.84 ± 0.09 µM in series [1]; 4.99 ± 0.25 µM in series [2]; 29.5 ± 1.46 µM in [6] (MCF-10a normal cell line); 29.5 µM in series [7]. The “Annexin V/PI quadrant, remaining (necrosis)” value in the series on MCF-7 cells [3] was determined as 5.92%. Besides, in the series with MCF-7 cells [3], the “average increment at the early phase of apoptosis” value is listed as “around 27%”. Further, the “average increment in late-stage apoptosis” value in the series with MCF-7 cells [3] is on record as “around 14%”. Moreover, in the series on MCF-7 cells [3], the “percentage of Annexin V/PI-stained cells” value is “about 47%”. Besides, the “increase in the percentage of the cell population in the S phase” value in the series with MCF-7 cells [4] (compared with control) came to 3%. Moreover, in the series on MCF-7 cells [4], the “increase in the percentage of cells in the G0-G1 phase” value is “around 7%”. The “levels of active caspase-3/7 expression” value in series [5] worked out at 26.5%. Besides, in series [6], the “SI (selectivity index)” value came out at 16.03.
